This passage reports IC50 and inhibition results from patent US8765748B2, “Indazolyl, benzimidazolyl, benzotriazolyl substituted indolinone derivatives as kinase inhibitors useful in the treatment of cancer” (University Health Network, priority 2007, dated 2014).

Holding throughout (format): biochemical
The target in experiment [1] is T1, human PLK4 (Homo sapiens, UniProt O00444).
T1 construct: amino terminal GST fusion of residues 1-391 of human PLK4; made in house; host or cells: E. coli
T1 sequence (O00444 1-391): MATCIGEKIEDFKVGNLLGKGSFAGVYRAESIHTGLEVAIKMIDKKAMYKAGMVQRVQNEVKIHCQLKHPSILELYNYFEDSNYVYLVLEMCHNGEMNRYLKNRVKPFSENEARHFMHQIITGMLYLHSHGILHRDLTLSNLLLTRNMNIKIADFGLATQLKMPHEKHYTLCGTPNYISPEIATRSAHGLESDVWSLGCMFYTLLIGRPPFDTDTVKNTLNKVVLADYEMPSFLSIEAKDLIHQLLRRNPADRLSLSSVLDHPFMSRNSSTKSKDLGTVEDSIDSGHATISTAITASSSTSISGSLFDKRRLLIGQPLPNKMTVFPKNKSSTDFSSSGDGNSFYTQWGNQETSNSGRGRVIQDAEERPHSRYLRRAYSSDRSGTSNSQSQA
In words: PLK4 Inhibition Assay (indirect ELISA). The note with it: 15 μM ATP, 4 nM GST-PLK4; read-out: PLK4 IC50 Ranges. An outline of the steps: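 Dephosphorylated (lambda phosphatase) GST-PLK4 activity read by indirect ELISA. Compounds were pre-incubated with enzyme for 15 minutes before ATP was added. IC50 came from a non-linear 4-point logistic fit.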

Experiment [2] addresses T2, Aurora B (Homo sapiens, UniProt Q96GD4).
T2 construct: purchased Invitrogen PV3970
In words: Aurora B Inhibition Assay (Z-Lyte). To be noted: 128 μM ATP, 28 nM Aurora B; read-out: Aurora B IC50 Ranges. The method, then:
Aurora B inhibition was determined using the Z-Lyte assay kit from Invitrogen. The assay was performed using the recommended manufacturer's instructions with 128 μM ATP and 28 nM Aurora B (Invitrogen cat #PV3970). The % inhibition values were determined according to the manufacturer's directions and IC50 values were obtained using a non-linear 4 point logistic curve fit (XLfit4, IDBS)

For experiment [3], the target named is Abl (Homo sapiens, UniProt P00519). In words: Millipore kinase assay, radiolabelled phosphopeptide filter binding, IC50 estimate. On the set-up: purchased Millipore (assay service). The note with it: estimated from inhibition at three compound concentrations; ATP at the Km. The method, then: (§1) Kinase assays at Millipore were performed using a radiolabelled phosphopeptide filter binding detection system, in duplicate, at each compound concentration. The ATP substrate concentration in the reactions was at the Km for each enzyme.
(§2) To allow for a more direct comparison of compound inhibition, an IC50 value was estimated from the inhibition determined at three compound concentrations. Several assumptions were made to allow this calculation using a 4 parameter non linear curve fit model, including full inhibition set at 100%, no inhibition set to 0%, and a curve fit parameter set at 1. The inflection point was reported as the estimated IC50.

The target of experiment [4] is Lyn (Homo sapiens, UniProt P07948). Described as above. Details: purchased Millipore (assay service). The note with it: estimated from inhibition at three compound concentrations; ATP at the Km. The method, then:
as §1, §2

The target in experiment [5] is Ret (Homo sapiens, UniProt P07949). Described as above. On the set-up: purchased Millipore (assay service). The note with it: estimated from inhibition at three compound concentrations; ATP at the Km. The protocol: as §1, §2
Experiment [6] concerns the target T3, TRKA (Homo sapiens, UniProt P04629). The description is as above. On the set-up: purchased Millipore (assay service). To be noted: estimated from inhibition at three compound concentrations; ATP at the Km. The protocol: as §1, §2
The target of experiment [7] is T3, TRKA. In words: Kinase Selectivity Assay (CEREP, HTRF). On the set-up: purchased CEREP, France (contract assay service). To be noted: read-out: % Inhibition at 10 μM Concentration, TRKA. The protocol:
kinase, ROCK2, RSK2, Src kinase, Syk, and TRKA. The % Inhibition was determined
Background: In TR-FRET formats the signal depends on donor and acceptor labels being close together.

Experiment [8] has as its target T4, PLK1 (Homo sapiens, UniProt P53350).
T4 construct: purchased Invitrogen PV3501
In words: PLK1 Inhibition Assay (Z-Lyte). The note with it: for inhibition at 10 µM: 10 μM compound, read-out: PLK1 relative inhibition percentage at a dose of 10 μM; for IC50: 25 μM ATP, 8 nM PLK1, read-out: PLK1 IC50 Ranges. The protocol:
PLK1 inhibition was determined using the Z-Lyte assay kit from Invitrogen (cat #PV3802). […] The % inhibition values were determined according to the manufacturer's directions and IC50 values were obtained using a non-linear 4 point logistic curve fit (XLfit4, IDBS)

The target in experiment [9] is T5, PLK2 (Homo sapiens, UniProt Q9NYY3).
T5 construct: purchased Invitrogen PV4204
In words: PLK2 Inhibition Assay (Z-Lyte). The note with it: for inhibition at 10 µM: 10 μM compound, read-out: PLK2 relative inhibition percentage at a dose of 10 μM; for IC50: 60 μM ATP, 133 nM PLK2, read-out: PLK2 IC50 Ranges. The protocol:
PLK2 inhibition was determined using the Z-Lyte assay kit from Invitrogen (cat #PV3802). The assay was performed using the recommended manufacturer's instructions with 60 μM ATP and 133 nM PLK2 (Invitrogen cat #PV4204). The % inhibition values were determined according to the manufacturer's directions and IC50 values were obtained using a non-linear 4 point logistic curve fit (XLfit4, IDBS)

For experiment [10], the target named is T6, Aurora A (Homo sapiens, UniProt O14965).
T6 construct: purchased Invitrogen PV3612
T6 sequence (O14965 1-403): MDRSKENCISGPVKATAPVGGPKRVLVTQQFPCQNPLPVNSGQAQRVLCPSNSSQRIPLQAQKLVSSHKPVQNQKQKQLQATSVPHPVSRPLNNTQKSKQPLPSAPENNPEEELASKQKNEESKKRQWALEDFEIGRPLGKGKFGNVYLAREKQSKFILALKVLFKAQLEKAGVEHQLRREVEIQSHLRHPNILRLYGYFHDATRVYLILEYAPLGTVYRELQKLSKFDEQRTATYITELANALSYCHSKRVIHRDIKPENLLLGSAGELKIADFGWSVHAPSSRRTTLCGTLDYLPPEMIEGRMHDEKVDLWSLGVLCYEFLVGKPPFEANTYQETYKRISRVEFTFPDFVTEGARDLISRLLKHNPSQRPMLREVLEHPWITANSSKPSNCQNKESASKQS
Briefly: Aurora A Inhibition Assay (Z-Lyte). The note with it: for IC50: 20 μM ATP, 12 nM Aurora A, read-out: Aurora A IC50 Ranges; for inhibition at 10 µM: 10 μM compound, read-out: Aurora A relative inhibition percentage at a dose of 10 μM. The protocol: Aurora A inhibition was determined using the Z-Lyte assay kit from Invitrogen. The assay was performed using the recommended manufacturer's instructions with 20 μM ATP and 12 nM Aurora A (Invitrogen cat #PV3612). The % inhibition values were determined according to the manufacturer's directions and IC50 values were obtained using a non-linear 4 point logistic curve fit (XLfit4, IDBS)

Where only a bound is given, the exact number is not on record here.

Chain of Lyn (P07948 whole entry): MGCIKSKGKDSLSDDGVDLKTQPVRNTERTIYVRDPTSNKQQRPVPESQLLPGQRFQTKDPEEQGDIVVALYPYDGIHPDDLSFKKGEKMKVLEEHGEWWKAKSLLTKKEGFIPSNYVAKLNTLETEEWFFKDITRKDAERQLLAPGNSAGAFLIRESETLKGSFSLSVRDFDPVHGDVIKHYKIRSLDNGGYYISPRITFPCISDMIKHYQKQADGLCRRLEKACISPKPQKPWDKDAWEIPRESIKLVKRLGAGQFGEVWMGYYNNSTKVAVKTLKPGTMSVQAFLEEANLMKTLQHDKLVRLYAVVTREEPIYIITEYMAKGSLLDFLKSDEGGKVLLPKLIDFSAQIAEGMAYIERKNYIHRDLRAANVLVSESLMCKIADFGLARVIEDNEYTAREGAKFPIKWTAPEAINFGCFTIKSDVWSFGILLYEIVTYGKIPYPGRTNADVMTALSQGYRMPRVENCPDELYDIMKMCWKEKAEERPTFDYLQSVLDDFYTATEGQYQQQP
T4 sequence (P53350 whole entry): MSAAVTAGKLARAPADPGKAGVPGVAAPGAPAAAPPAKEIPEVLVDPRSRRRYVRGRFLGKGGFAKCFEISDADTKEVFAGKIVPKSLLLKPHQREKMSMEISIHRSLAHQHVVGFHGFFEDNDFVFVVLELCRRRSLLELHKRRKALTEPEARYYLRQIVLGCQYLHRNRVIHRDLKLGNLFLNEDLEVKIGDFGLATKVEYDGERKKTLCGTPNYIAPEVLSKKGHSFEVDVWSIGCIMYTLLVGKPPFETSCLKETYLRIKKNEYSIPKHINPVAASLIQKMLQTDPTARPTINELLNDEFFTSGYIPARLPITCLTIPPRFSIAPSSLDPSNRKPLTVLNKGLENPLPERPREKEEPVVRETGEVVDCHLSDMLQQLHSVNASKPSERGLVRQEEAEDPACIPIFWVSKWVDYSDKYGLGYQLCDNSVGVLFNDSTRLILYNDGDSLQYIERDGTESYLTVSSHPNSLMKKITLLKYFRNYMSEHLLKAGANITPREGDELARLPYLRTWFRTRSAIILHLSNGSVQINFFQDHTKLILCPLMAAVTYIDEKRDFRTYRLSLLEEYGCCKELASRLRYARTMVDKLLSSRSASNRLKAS
T5 sequence (Q9NYY3 whole entry): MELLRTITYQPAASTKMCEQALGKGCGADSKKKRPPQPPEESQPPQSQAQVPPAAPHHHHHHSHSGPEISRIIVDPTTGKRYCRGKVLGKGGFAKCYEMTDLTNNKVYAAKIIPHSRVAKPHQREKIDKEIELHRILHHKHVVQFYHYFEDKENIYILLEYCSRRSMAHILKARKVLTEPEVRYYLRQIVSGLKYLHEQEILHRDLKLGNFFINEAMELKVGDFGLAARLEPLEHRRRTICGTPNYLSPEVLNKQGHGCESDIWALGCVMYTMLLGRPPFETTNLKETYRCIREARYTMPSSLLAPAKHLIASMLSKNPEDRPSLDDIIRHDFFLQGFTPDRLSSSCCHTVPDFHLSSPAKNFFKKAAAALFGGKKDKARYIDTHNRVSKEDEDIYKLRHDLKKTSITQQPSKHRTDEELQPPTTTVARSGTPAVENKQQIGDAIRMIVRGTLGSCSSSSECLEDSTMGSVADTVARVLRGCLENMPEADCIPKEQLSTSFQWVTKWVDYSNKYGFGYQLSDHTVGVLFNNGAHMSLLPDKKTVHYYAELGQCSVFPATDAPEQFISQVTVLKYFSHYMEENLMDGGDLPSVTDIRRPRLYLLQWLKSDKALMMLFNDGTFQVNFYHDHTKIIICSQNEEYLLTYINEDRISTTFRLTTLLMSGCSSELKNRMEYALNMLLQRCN
T3 sequence (P04629 33-796): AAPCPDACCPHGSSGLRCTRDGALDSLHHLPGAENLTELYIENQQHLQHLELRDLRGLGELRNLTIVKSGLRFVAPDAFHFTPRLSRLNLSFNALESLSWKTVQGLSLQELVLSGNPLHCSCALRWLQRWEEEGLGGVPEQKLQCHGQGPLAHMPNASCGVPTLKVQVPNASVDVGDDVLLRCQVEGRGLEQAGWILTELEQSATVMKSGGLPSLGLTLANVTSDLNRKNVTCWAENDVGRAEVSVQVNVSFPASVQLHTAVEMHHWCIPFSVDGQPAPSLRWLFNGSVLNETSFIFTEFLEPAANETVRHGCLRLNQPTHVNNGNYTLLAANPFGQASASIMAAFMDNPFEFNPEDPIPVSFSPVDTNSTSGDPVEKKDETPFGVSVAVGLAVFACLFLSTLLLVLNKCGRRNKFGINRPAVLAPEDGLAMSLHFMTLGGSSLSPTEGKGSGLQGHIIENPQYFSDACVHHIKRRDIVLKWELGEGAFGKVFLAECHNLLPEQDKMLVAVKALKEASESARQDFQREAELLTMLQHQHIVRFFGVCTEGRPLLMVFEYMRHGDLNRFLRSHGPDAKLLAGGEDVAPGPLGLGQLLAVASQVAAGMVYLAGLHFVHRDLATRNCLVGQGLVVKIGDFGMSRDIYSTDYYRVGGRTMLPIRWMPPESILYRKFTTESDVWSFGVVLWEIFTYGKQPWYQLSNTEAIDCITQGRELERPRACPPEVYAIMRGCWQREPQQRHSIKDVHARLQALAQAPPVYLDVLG
T2 sequence (Q96GD4 whole entry): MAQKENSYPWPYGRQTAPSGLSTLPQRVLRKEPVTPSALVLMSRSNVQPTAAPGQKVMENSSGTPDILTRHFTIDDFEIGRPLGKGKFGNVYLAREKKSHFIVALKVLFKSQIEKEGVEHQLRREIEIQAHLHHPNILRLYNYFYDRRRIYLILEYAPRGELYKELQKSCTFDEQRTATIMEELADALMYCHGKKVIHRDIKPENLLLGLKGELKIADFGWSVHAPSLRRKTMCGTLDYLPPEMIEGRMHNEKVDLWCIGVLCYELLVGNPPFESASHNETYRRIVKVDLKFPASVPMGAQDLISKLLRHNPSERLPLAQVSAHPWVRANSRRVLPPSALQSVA
Chain of Ret (P07949 29-1114): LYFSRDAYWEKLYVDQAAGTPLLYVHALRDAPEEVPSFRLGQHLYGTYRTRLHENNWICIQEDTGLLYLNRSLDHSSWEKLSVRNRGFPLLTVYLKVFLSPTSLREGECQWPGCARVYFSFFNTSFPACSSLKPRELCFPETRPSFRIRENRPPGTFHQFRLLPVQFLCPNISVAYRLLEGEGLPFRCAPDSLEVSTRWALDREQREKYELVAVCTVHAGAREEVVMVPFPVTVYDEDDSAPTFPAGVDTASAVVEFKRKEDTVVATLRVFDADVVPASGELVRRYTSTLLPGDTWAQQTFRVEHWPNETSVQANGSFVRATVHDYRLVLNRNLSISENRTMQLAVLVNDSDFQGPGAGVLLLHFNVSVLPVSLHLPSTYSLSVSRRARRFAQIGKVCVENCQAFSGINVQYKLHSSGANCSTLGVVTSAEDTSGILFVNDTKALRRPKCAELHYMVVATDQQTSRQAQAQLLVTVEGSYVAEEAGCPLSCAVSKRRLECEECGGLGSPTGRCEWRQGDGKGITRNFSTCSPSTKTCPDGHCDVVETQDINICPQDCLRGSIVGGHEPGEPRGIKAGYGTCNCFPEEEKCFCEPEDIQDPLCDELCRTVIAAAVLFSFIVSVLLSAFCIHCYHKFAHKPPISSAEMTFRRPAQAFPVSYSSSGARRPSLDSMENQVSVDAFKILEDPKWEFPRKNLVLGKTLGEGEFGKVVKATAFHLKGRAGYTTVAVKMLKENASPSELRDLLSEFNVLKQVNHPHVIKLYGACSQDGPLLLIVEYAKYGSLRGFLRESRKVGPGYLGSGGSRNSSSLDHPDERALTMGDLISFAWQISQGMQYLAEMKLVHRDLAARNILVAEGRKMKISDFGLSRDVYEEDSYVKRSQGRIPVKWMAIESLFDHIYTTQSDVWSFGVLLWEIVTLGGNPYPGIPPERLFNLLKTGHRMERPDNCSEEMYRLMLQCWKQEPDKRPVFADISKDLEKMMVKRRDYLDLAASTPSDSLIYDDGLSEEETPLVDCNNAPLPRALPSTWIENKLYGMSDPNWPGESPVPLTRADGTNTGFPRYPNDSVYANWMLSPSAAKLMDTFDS

As a reminder, the IC50 is the concentration that inhibits the measured activity by half. As to `COc1ccc2c(c1)C(=Cc1ccc3c(-c4ccc(N5CCN(C)CC5)nc4)n[nH]c3c1)C(=O)N2` (mixture of isomers) [Example A97, (E and Z)-5-methoxy-3-((3-(6-(4-methylpiperazin-1-yl)pyridin-3-yl)-1H-indazol-6-yl)methylene)indolin-2-one], the IC50 is less than 5 µM in [1]; less than 5 µM in experiment [2]; less than 5 µM in experiment [3]; 5 to 50 µM in experiment [4]; less than 5 µM in experiment [5]; less than 5 µM in experiment [6]. For the same molecule, the inhibition at 10 µM in experiment [7] stood at 93%.
Take `O=C1Nc2ncc(Br)cc2C1=Cc1ccc2c(/C=C/c3ccncc3)n[nH]c2c1` (mixture of isomers) [Example A109, (E and Z)-5-bromo-3-((3-((E)-2-(pyridin-4-yl)vinyl)-1H-indazol-6-yl)methyl-ene)-1H-pyrrolo[2,3-b]pyridin-2(3H)-one]: the IC50 in [1], in experiment [10] and in [2] was less than 5 µM throughout. Further, the inhibition at 10 µM in experiment [8] and in experiment [9] was less than 50% in each case.
Turning to `O=C1Nc2ccccc2/C1=C\c1ccc2[nH]nnc2c1` [Example A1, (E)-3-((1H-benzo[d][1,2,3]triazol-5-yl)methylene)indolin-2-one], the IC50 was less than 5 µM in experiment [1], 5 to 50 µM in [8], 5 to 50 µM in [9] and less than 5 µM in experiment [2]. Moreover, the inhibition at 10 µM in experiment [10] was less than 50%; in experiment [7], -13%.
Take `CN(C)Cc1ccc(/C=C/c2n[nH]c3cc(C=C4C(=O)Nc5ccccc54)ccc23)cc1` (mixture of isomers) [Example A106, (E and Z)-3-[(3-{(E)-2-[4-((dimethylamino)methyl)-phenyl]-ethenyl}-1H-indazol-6-yl)methylidene]-1,3-dihydro-2H-indol-2-one 2,2,2-trifluoroacetate]: the IC50 in experiment [1], in [2], in experiment [3], in [4], in experiment [5] and in [6] was less than 5 µM in each case. Besides, the inhibition at 10 µM in experiment [8] is less than 50%; in experiment [10] it was greater than 50%.
For the molecule `O=C1Nc2ccccc2/C1=C\c1ccc2c(/C=C/c3ccccc3Cl)n[nH]c2c1` [Example A60, (E)-3-((3-((E)-2-chlorostyryl)-1H-indazol-6-yl)methylene)indolin-2-one], the IC50 in experiment [1], in [10] and in [2] was less than 5 µM each time. The results for the inhibition at 10 µM in experiment [8], in [9] and in experiment [7] were less than 50%, less than 50% and 75%, respectively.
Take `CN1CCN(c2ccc(/C=C/c3n[nH]c4cc(C=C5C(=O)Nc6ccccc65)ccc34)cn2)CC1` (mixture of isomers) [Example A108, (E and Z)-3-((3-((E)-2-(6-(4-methylpiperazin-1-yl)pyridin-3-yl)vinyl)-1H-indazol-6-yl)methylene)indolin-2-one]: the IC50 in experiment [1], in experiment [10] and in [2] was less than 5 µM in each case. Also, the inhibition at 10 µM in [8] and in [9] was less than 50% each time.
With `O=C1Nc2ccccc2/C1=C\c1ccc2cn[nH]c2c1` [Example A5, (E)-3-((1H-indazol-6-yl)methylene)indolin-2-one], the IC50 is 5 to 50 µM in experiment [8], 5 to 50 µM in experiment [9], less than 5 µM in experiment [10] and less than 5 µM in experiment [2]. The inhibition at 10 µM in [7] stood at 60%.
As for `O=C1Nc2ccccc2C1=Cc1ccc2c(/C=C/c3ccccn3)n[nH]c2c1` (mixture of isomers) [Example A41, (E and Z)-3-((3-((E)-2-(pyridin-2-yl)vinyl)-1H-indazol-6-yl)methylene)indolin-2-one], the IC50 in [1] was less than 5 µM; in experiment [8], greater than 50 µM; in [9] it was greater than 50 µM; in [10] it was less than 5 µM; in experiment [2], less than 5 µM; in experiment [3], less than 5 µM. Besides, the IC50 in experiment [4], in experiment [5] and in experiment [6] was less than 5 µM each time. Besides, the inhibition at 10 µM in experiment [7] worked out at 99%.
